In ChEMBL document CHEMBL4680240, “Tail approach synthesis of novel benzenesulfonamides incorporating 1,3,4-oxadiazole hybrids as potent inhibitor of carbonic anhydrase I, II, IX, and XII isoenzymes” (Eur J Med Chem, 2020):

Key:
Carbonic anhydrase 9 = Carbonic anhydrase 9 (Homo sapiens, UniProt Q16790); assay: Inhibition of recombinant human carbonic anhydrase 9 incubated for 10 mins prior to testing measured for 5 to 10 secs by phenol red-based stopped-flow CO2 hydration assay
Carbonic anhydrase 12 = Carbonic anhydrase 12 (Homo sapiens, UniProt O43570); assay: Inhibition of recombinant human carbonic anhydrase 12 incubated for 10 mins prior to testing measured for 5 to 10 secs by phenol red-based stopped-flow CO2 hydration assay
Carbonic anhydrase 1 = Carbonic anhydrase 1 (Homo sapiens, UniProt P00915); assay: Inhibition of recombinant human carbonic anhydrase 1 incubated for 10 mins prior to testing measured for 5 to 10 secs by phenol red-based stopped-flow CO2 hydration assay
Carbonic anhydrase 2 = Carbonic anhydrase 2 (Homo sapiens, UniProt P00918); assay: Inhibition of recombinant human carbonic anhydrase 2 incubated for 10 mins prior to testing measured for 5 to 10 secs by phenol red-based stopped-flow CO2 hydration assay

Carbonic anhydrase 1, sequence (P00915 whole entry): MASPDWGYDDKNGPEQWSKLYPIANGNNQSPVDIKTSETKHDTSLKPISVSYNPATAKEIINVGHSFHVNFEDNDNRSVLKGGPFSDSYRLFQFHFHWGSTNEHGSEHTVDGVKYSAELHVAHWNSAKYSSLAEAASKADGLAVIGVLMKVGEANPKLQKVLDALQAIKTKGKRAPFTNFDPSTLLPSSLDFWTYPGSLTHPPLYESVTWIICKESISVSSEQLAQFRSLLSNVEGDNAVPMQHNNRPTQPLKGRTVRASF
Carbonic anhydrase 12, sequence (O43570 whole entry): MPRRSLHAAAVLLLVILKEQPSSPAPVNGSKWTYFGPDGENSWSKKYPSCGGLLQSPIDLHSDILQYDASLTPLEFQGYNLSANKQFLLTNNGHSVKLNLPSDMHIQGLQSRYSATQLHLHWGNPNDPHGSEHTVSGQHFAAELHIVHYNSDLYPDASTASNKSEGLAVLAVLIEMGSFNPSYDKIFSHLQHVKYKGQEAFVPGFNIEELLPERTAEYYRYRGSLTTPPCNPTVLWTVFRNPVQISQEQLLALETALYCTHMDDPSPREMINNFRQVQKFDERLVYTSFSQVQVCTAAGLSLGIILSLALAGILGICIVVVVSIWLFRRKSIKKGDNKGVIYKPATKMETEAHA

Row | SMILES | Ki (Carbonic anhydrase 9) | Ki (Carbonic anhydrase 12) | Ki (Carbonic anhydrase 1) | Ki (Carbonic anhydrase 2)
1 | NS(=O)(=O)c1ccc(-c2nnc(SCC(=O)c3cccc([N+](=O)[O-])c3)o2)cc1 | 566 nM | 577 nM | 669 nM | 58.5 nM
2 | NS(=O)(=O)c1ccc(-c2nnc(SCC(=O)c3ccccc3)o2)cc1 | 757 nM | 265 nM | 1360 nM | 347 nM
3 | Cc1ccc(C(=O)CSc2nnc(-c3ccc(S(N)(=O)=O)cc3)o2)cc1 | 201 nM | 231 nM | 3320 nM | 148 nM
4 | NS(=O)(=O)c1ccc(-c2nnc(SCC(=O)Nc3ccc(Br)cc3)o2)cc1 | 671 nM | 751 nM | 3900 nM | 848 nM
5 | COc1cccc(NC(=O)CSc2nnc(-c3ccc(S(N)(=O)=O)cc3)o2)c1 | 53.1 nM | 690 nM | 673 nM | 69.8 nM
6 | NS(=O)(=O)c1ccc(-c2nnc(SCC(=O)Nc3ccc(F)cc3)o2)cc1 | 163 nM | 588 nM | 711 nM | 85.7 nM
7 | NS(=O)(=O)c1ccc(-c2nnc(SCC(=O)Nc3ccc(Cl)cc3)o2)cc1 | 757 nM | 838 nM | 2080 nM | 96 nM
8 | NS(=O)(=O)c1ccc(-c2nnc(SCC(=O)c3ccc([N+](=O)[O-])cc3)o2)cc1 | 633 nM | 294 nM | 70.7 nM | 29.5 nM
9 | NS(=O)(=O)c1ccc(-c2nnc(SCC(=O)c3ccc(F)cc3)o2)cc1 | 1980 nM | 2240 nM | 744 nM | 69.4 nM
10 | NS(=O)(=O)c1ccc(-c2nnc(SCC(=O)Nc3cccc([N+](=O)[O-])c3)o2)cc1 | 16.3 nM | 257 nM | 73.2 nM | 7.9 nM
11 | Cc1ccc(NC(=O)CSc2nnc(-c3ccc(S(N)(=O)=O)cc3)o2)cc1 | 74.1 nM | 263 nM | 739 nM | 78.7 nM
12 | COc1ccc(NC(=O)CSc2nnc(-c3ccc(S(N)(=O)=O)cc3)o2)cc1 | 29 nM | 266 nM | 2920 nM | 53.6 nM
13 | NS(=O)(=O)c1ccc(-c2nnc(SCC(=O)c3cccc(Cl)c3)o2)cc1 | 1250 nM | 383 nM | 544 nM | 59.2 nM
14 | COc1ccc(C(=O)CSc2nnc(-c3ccc(S(N)(=O)=O)cc3)o2)cc1 | 449 nM | 3620 nM | 3810 nM | 158 nM
15 | NS(=O)(=O)c1ccc(-c2nnc(SCC(=O)c3ccc(Br)cc3)o2)cc1 | 1750 nM | 636 nM | 617 nM | 67 nM
16 | NS(=O)(=O)c1ccc(-c2nnc(SCC(=O)Nc3ccc([N+](=O)[O-])cc3)o2)cc1 | 256 nM | 737 nM | 762 nM | 73.1 nM
17 | NS(=O)(=O)c1ccc(-c2nnc(SCC(=O)Nc3ccccc3)o2)cc1 | 111 nM | 366 nM | 542 nM | 61.1 nM
18 | COc1cccc(C(=O)CSc2nnc(-c3ccc(S(N)(=O)=O)cc3)o2)c1 | 1330 nM | 492 nM | 470 nM | 79.6 nM
19 | NS(=O)(=O)c1ccc(-c2nnc(SCC(=O)Nc3cccc(Cl)c3)o2)cc1 | 50.8 nM | 400 nM | 501 nM | 81.9 nM
20 | NS(=O)(=O)c1ccc(-c2nnc(SCC(=O)c3ccc(Cl)cc3)o2)cc1 | 1320 nM | 840 nM | 595 nM | 67.3 nM
